Format in all cases: in vivo, Sprague-Dawley rats
Series [1] concerns absorption of sodium from the intestinal lumen. Put plainly: Inhibition of intestinal sodium absorption (urinary sodium and fecal form). The settings on record: rat; for response vs control in vivo at 3 mg/kg: 3 mg/kg oral gavage, urine 16 h post-dose, asterisks = significance vs vehicle (*P<0.05, **P<0.01, ***P<0.001), read-out: uNa (% of vehicle). In outline:
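Sprague-Dawley rats (8 weeks, n=6) dosed by oral gavage with compound or water vehicle (10 mL/kg) in late afternoon, then housed in metabolic cages. Over 16 h, urinary sodium measured by ion chromatography and expressed as % of vehicle mean; fecal form scored 1–5, averaged from two observations.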

The nature of series [2]: Pharmacokinetic evaluation in bile. Conditions: bile duct cannulated rats, oral gavage, nominal dose 30 mg/kg, bile collected over 24 h, mean of n=3. The procedure:
Bile duct cannulated (BDC) Sprague-Dawley rats were dosed with test compounds by oral gavage and a single aliquot of bile was collected via cannula over the 24 h following dosing. Bile samples were treated with acetonitrile and precipitated proteins were removed by centrifugation. Some compounds required liquid-liquid extraction using MTBE. After centrifugation, samples were diluted as appropriate in mobile phase and analyzed by LC-MS/MS. The concentrations of compounds in bile were determined by interpolation from a standard calibration curve prepared in rat bile from untreated BDC rats. Accurate recovery of quality control samples was confirmed to accept each analytical run. Concentration in bile is reported in nM and represents the mean result from n=3 rats.

Series [3] is described as follows: Plasma PK. Conditions: Sprague-Dawley; rat plasma, oral gavage, nominal dose 30 mg/kg, mean of n=3, sampling 0.5-4 h. As to the method: Sprague-Dawley rats (n=3) were dosed with test compounds by oral gavage. Blood was collected at 0.5, 1, 2 and 4 h via retro-orbital bleeds and processed to plasma using K2EDTA as an anticoagulant. Plasma samples were treated with acetonitrile containing an internal standard and precipitated proteins were removed by centrifugation. Supernatants were analyzed by LC-MS/MS and compound concentrations were determined by interpolation from a calibration curve prepared in plasma. Accurate recovery of quality control samples were confirmed to accept each analytical run.

The values that follow come from patent US10385024B2, “Compounds and methods for inhibiting NHE-mediated antiport in the treatment of disorders associated with fluid retention or salt overload and gastrointestinal tract disorders” (Ardelyx, Inc., priority 2012, dated 2019).

Where only a bound is given, the exact number is not on record here.

One may read the AUC as the area under the concentration-time curve, a measure of exposure. As usually defined, the Cmax is the highest concentration seen after dosing.

Consider `CN1Cc2c(Cl)cc(Cl)cc2[C@H](c2cccc(S(=O)(=O)NCCOCCOCCNC(=O)NCCCN(CCCNC(=O)NCCOCCOCCNS(=O)(=O)c3cccc([C@@H]4CN(C)Cc5c(Cl)cc(Cl)cc54)c3)CCCNC(=O)NCCOCCOCCNS(=O)(=O)c3cccc([C@@H]4CN(C)Cc5c(Cl)cc(Cl)cc54)c3)c2)C1` [Example 43, (S)—N,N′-(15-(1-(3-((S)-6,8-dichloro-2-methyl-1,2,3,4-tetrahydroisoquinolin-4-yl)phenylsulfonamido)-10-oxo-3,6-dioxa-9,11-diazatetradecan-14-yl)-10,20-dioxo-3,6,24,27-tetraoxa-9,11,15,19,21-pentaazanonacosane-1,29-diyl)bis(3-((S)-6,8-dichloro-2-methyl-1,2,3,4-tetrahydroisoquinolin-4-yl)benzenesulfonamide)], for which the response vs control in vivo at 3 mg/kg in series [1] lay within 35 to 75%. Further, the “Concentration in Bile” value in series [2] is recorded as 6 nM.
As to `CN1Cc2c(Cl)cc(Cl)cc2[C@H](c2cccc(S(=O)(=O)NCCOCCOCCNC(=O)CCC(CCC(=O)NCCOCCOCCNS(=O)(=O)c3cccc([C@@H]4CN(C)Cc5c(Cl)cc(Cl)cc54)c3)(CCC(=O)NCCOCCOCCNS(=O)(=O)c3cccc([C@@H]4CN(C)Cc5c(Cl)cc(Cl)cc54)c3)NC(=O)NCC(=O)O)c2)C1` [Example 7, 18-(3-((S)-6,8-dichloro-2-methyl-1,2,3,4-tetrahydroisoquinolin-4-yl)phenylsulfonamido)-6,6-bis(3-(2-(2-(2-(3-((S)-6,8-dichloro-2-methyl-1,2,3,4-tetrahydroisoquinolin-4-yl)phenylsulfonamido)ethoxy)ethoxy)ethylamino)-3-oxopropyl)-4,9-dioxo-13,16-dioxa-3,5,10-triazaoctadecan-1-oic acid], the response vs control in vivo at 3 mg/kg in series [1] was less than 35%. The “Concentration in Bile” value in series [2] is 19 nM. Further, in series [3], the AUC was less than 8 ng·h/mL and the Cmax was less than 2 ng/mL.
In series [1] (fecal form score, scale 1 (normal pellet) to 5 (liquid fecal streams), group average, 3 mg/kg oral, 16 h post-dose, vehicle = 1), `CN1Cc2c(Cl)cc(Cl)cc2[C@H](c2cccc(S(=O)(=O)NCCOCCOCCN(C)C(=O)NCCCN(CCCNC(=O)N(C)CCOCCOCCNS(=O)(=O)c3cccc([C@@H]4CN(C)Cc5c(Cl)cc(Cl)cc54)c3)CCCNC(=O)N(C)CCOCCOCCNS(=O)(=O)c3cccc([C@@H]4CN(C)Cc5c(Cl)cc(Cl)cc54)c3)c2)C1` [Example 55] displayed an FFS of 2. Besides, the response vs control in vivo at 3 mg/kg in series [1] lay in the range of 35 to 75%.
Turning to `CN1Cc2c(Cl)cc(Cl)cc2[C@H](c2cccc(S(=O)(=O)NCCOCCOCCNC(=O)CCC(CCC(=O)NCCOCCOCCNS(=O)(=O)c3cccc([C@@H]4CN(C)Cc5c(Cl)cc(Cl)cc54)c3)(CCC(=O)NCCOCCOCCNS(=O)(=O)c3cccc([C@@H]4CN(C)Cc5c(Cl)cc(Cl)cc54)c3)NC(=O)NC(CO)(CO)CO)c2)C1` [Example 11, N^1,N^7-bis(2-(2-(2-(3-((S)-6,8-dichloro-2-methyl-1,2,3,4-tetrahydroisoquinolin-4-yl)phenylsulfonamido)ethoxy)ethoxy)ethyl)-4-(3-(2-(2-(2-(3-((S)-6,8-dichloro-2-methyl-1,2,3,4-tetrahydroisoquinolin-4-yl)phenylsulfonamido)ethoxy)ethoxy)ethylamino)-3-oxopropyl)-4-(3-(1,3-dihydroxy-2-(hydroxymethyl)propan-2-yl)ureido)heptanediamide], the response vs control in vivo at 3 mg/kg in series [1] was in the range of 35 to 75%.
For `CN1Cc2c(Cl)cc(Cl)cc2[C@H](c2cccc(S(=O)(=O)NCCOCCOCCNC(=O)NCCCC(CCCNC(=O)NCCOCCOCCNS(=O)(=O)c3cccc([C@@H]4CN(C)Cc5c(Cl)cc(Cl)cc54)c3)(CCCNC(=O)NCCOCCOCCNS(=O)(=O)c3cccc([C@@H]4CN(C)Cc5c(Cl)cc(Cl)cc54)c3)NC(=O)NC[C@H](O)[C@@H](O)[C@H](O)[C@H](O)CO)c2)C1` [Example 65], the response vs control in vivo at 3 mg/kg in series [1] was in the range of 35 to 75%.
With `CN1Cc2c(Cl)cc(Cl)cc2[C@H](c2cccc(S(=O)(=O)NCCOCCOCCNC(=O)CCC(CCC(=O)NCCOCCOCCNS(=O)(=O)c3cccc([C@@H]4CN(C)Cc5c(Cl)cc(Cl)cc54)c3)(CCC(=O)NCCOCCOCCNS(=O)(=O)c3cccc([C@@H]4CN(C)Cc5c(Cl)cc(Cl)cc54)c3)NC(=O)CCC(=O)O)c2)C1` [Example 40], the response vs control in vivo at 3 mg/kg in series [1] was less than 35%. Besides, the “Concentration in Bile” value in series [2] worked out at 23 nM.
On the same counts, the results for `CN1Cc2c(Cl)cc(Cl)cc2[C@H](c2cccc(S(=O)(=O)NCCOCCOCCNC(=O)NCCCC(N)(CCCNC(=O)NCCOCCOCCNS(=O)(=O)c3cccc([C@@H]4CN(C)Cc5c(Cl)cc(Cl)cc54)c3)CCCNC(=O)NCCOCCOCCNS(=O)(=O)c3cccc([C@@H]4CN(C)Cc5c(Cl)cc(Cl)cc54)c3)c2)C1` [Example 62] are 35 to 75% and 7 nM.
Turning to `CN1Cc2c(Cl)cc(Cl)cc2[C@H](c2cccc(S(=O)(=O)NCCOCCOCCNC(=O)CCC(CCC(=O)NCCOCCOCCNS(=O)(=O)c3cccc([C@@H]4CN(C)Cc5c(Cl)cc(Cl)cc54)c3)(CCC(=O)NCCOCCOCCNS(=O)(=O)c3cccc([C@@H]4CN(C)Cc5c(Cl)cc(Cl)cc54)c3)NC(=O)CCCC(=O)O)c2)C1` [Example 36], the response vs control in vivo at 3 mg/kg in series [1] was less than 35%. Also, in series [2], the “Concentration in Bile” value is listed as 17 nM.
For `CN1Cc2c(Cl)cc(Cl)cc2[C@H](c2cccc(S(=O)(=O)NCCOCCOCCNC(=O)CCC(CCC(=O)NCCOCCOCCNS(=O)(=O)c3cccc([C@@H]4CN(C)Cc5c(Cl)cc(Cl)cc54)c3)(CCC(=O)NCCOCCOCCNS(=O)(=O)c3cccc([C@@H]4CN(C)Cc5c(Cl)cc(Cl)cc54)c3)NC(=O)NCCN3CCOCC3)c2)C1` [Example 17, N^1,N^7-bis(2-(2-(2-(3-((S)-6,8-dichloro-2-methyl-1,2,3,4-tetrahydroisoquinolin-4-yl)phenylsulfonamido)ethoxy)ethoxy)ethyl)-4-(3-(2-(2-(2-(3-((S)-6,8-dichloro-2-methyl-1,2,3,4-tetrahydroisoquinolin-4-yl)phenylsulfonamido)ethoxy)ethoxy)ethylamino)-3-oxopropyl)-4-(3-(2-morpholinoethyl)ureido)heptanediamide], the response vs control in vivo at 3 mg/kg in series [1] is less than 35%.
As to `CN1Cc2c(Cl)cc(Cl)cc2[C@H](c2cccc(S(=O)(=O)NCCOCCOCCNC(=O)CCC(CCC(=O)NCCOCCOCCNS(=O)(=O)c3cccc([C@@H]4CN(C)Cc5c(Cl)cc(Cl)cc54)c3)(CCC(=O)NCCOCCOCCNS(=O)(=O)c3cccc([C@@H]4CN(C)Cc5c(Cl)cc(Cl)cc54)c3)NC(=O)COCC(=O)O)c2)C1` [Example 6, 1-(3-((S)-6,8-dichloro-2-methyl-1,2,3,4-tetrahydroisoquinolin-4-yl)phenylsulfonamido)-13,13-bis(3-(2-(2-(2-(3-((S)-6,8-dichloro-2-methyl-1,2,3,4-tetrahydroisoquinolin-4-yl)phenylsulfonamido)ethoxy)ethoxy)ethylamino)-3-oxopropyl)-10,15-dioxo-3,6,17-trioxa-9,14-diazanonadecan-19-oic Acid], in series [1], the response vs control in vivo at 3 mg/kg was less than 35%. Besides, the “Concentration in Bile” value in series [2] was 21 nM.
Take `CN1Cc2c(Cl)cc(Cl)cc2[C@H](c2cccc(S(=O)(=O)NCCOCCOCCNC(=O)CCC(CCC(=O)NCCOCCOCCNS(=O)(=O)c3cccc([C@@H]4CN(C)Cc5c(Cl)cc(Cl)cc54)c3)(CCC(=O)NCCOCCOCCNS(=O)(=O)c3cccc([C@@H]4CN(C)Cc5c(Cl)cc(Cl)cc54)c3)NC(=O)NCCS(=O)(=O)O)c2)C1` [Example 3]: in series [1], the response vs control in vivo at 3 mg/kg is less than 35%. For the same compound, in series [2], the “Concentration in Bile” value is on record as 10 nM.
Turning to `CN(C)CC(=O)NC(CCC(=O)NCCOCCOCCNS(=O)(=O)c1cccc([C@@H]2CN(C)Cc3c(Cl)cc(Cl)cc32)c1)(CCC(=O)NCCOCCOCCNS(=O)(=O)c1cccc([C@@H]2CN(C)Cc3c(Cl)cc(Cl)cc32)c1)CCC(=O)NCCOCCOCCNS(=O)(=O)c1cccc([C@@H]2CN(C)Cc3c(Cl)cc(Cl)cc32)c1` [Example 14, N1,N7-bis(2-(2-(2-(3-((S)-6,8-dichloro-2-methyl-1,2,3,4-tetrahydroisoquinolin-4-yl)phenylsulfonamido)ethoxy)ethoxy)ethyl)-4-(3-(2-(2-(2-(3-((S)-6,8-dichloro-2-methyl-1,2,3,4-tetrahydroisoquinolin-4-yl)phenylsulfonamido)ethoxy)ethoxy)ethylamino)-3-oxopropyl)-4-(2-(dimethylamino)acetamido)heptanediamide], the response vs control in vivo at 3 mg/kg in series [1] was less than 35%. The “Concentration in Bile” value in series [2] is reported as 28 nM.
